According to patent US20020034545A1, “Particulate composition of eletriptan” (priority 2000, published 2002):
Converted amounts (≈) assume the structure as drawn. Where a name gives a salt, the structure may show the parent alone.

Experiment: physchem
Type: physicochemical
From the text: Several salts of eletriptan have been identified that have properties which make them particularly suitable for development as drug substances. […] It is therefore desirable to provide a controlled release formulation capable of achieving a sigmoidal pattern of drug release and suitable for oral administration that is equally useful for the delivery of any form of eletriptan, regardless of its solubility.

Row | Molecule | aqueous solubility [µg/mL] | solubility (20 °C, water, aqueous solubility) [µg/mL]
1 | CN1CCC[C@@H]1Cc1c[nH]c2ccc(CCS(=O)(=O)c3ccccc3)cc12 [eletriptan free base, 3-{[1-methylpyrrolidin-2(R)-yl]methyl}-5-(2-phenylsulfonylethyl)-1H-indole] | 2500 (≈ 6.54 mM) | 
2 | eletriptan hemisulphate [hemisulphate salt] | > 200000 | 
3 | CN1CCC[C@@H]1Cc1c[nH]c2ccc(CCS(=O)(=O)c3ccccc3)cc12 [hydrobromide salt, eletriptan hydrobromide] |  | 4000
